In patent EP2272817A1, “PAI-1 INHIBITOR” (Institute of Medicinal Molecular Design, Inc., priority 2008, dated 2009) one finds inhibition data, which are given here for six molecules.

Each structure is given as a SMILES string. Like-named read-outs stand apart in the source and are kept apart here.

Test [1] deals with T1, recombinant human PAI-1 (Homo sapiens, UniProt P05121). Description: biochemical.
Test [2] addresses T1, recombinant human PAI-1. Description: Test Example 2: Human PAI-1 Inhibitory Activity (pH 7.4 HEPES buffer, 10 minutes incubation with two-chain tPA). The class given is biochemical. Set-up: purchased Molecular Innovations, Inc. The conditions noted are these: read-out: Inhibition Rate of PAI-1 Activity (%). Here is the method:
0.1 M HEPES, 0.1 M NaCl. 1 mM EDTA. 0.1 % Polyethylene glycol 8,000 (Hampton Research Corporation),
2 mM Dimethyldecylphoshine oxide [Apo-10] (Fluka Corporation)

The next test addresses T2, recombinant rat PAI-1 (Rattus norvegicus, UniProt P20961).
T2 sequence (P20961 24-402): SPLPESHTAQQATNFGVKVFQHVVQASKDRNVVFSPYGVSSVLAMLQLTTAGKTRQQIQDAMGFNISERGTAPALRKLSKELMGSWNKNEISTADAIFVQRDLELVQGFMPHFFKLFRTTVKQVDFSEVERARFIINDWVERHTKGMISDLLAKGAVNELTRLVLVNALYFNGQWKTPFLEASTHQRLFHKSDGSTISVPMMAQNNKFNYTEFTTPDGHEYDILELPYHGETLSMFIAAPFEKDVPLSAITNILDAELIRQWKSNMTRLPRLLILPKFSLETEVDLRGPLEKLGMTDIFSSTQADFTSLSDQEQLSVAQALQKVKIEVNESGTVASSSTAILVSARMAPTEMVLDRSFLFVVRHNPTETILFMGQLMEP
Description: biochemical. The following applies: read-out: Inhibition Rate of PAI-1 Activity (%).

Setting [3] is: read-out: Inhibition Rate of PAI-1 Activity (%), Compound Concentration 5µM.
Where [4] appears, read: read-out: Inhibition Rate of PAI-1 Activity (%), Compound Concentration 10µM.
The mark [5] stands for this setting: read-out: Inhibition Rate of PAI-1 Activity (%), Compound Concentration 25µM.
[6] abbreviates: read-out: Inhibition Rate of PAI-1 Activity (%).

T1 sequence (P05121 24-402): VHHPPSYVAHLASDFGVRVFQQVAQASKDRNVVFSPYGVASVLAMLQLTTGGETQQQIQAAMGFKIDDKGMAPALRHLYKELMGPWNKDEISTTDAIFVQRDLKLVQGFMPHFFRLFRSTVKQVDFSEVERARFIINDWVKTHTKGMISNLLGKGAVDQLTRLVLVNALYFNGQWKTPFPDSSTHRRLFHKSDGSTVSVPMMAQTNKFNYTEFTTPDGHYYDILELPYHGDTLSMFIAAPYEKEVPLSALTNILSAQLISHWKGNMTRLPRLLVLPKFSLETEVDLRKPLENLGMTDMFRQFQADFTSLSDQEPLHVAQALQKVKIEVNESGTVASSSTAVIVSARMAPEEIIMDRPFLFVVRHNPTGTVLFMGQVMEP

For `CC(C)(C)c1ccc(Oc2cccc(-c3ccc(OC(F)(F)F)cc3)c2OCC(=O)O)cc1` [Compound 113], at recombinant human PAI-1 [1] (setting [3]), the inhibition at 5 µM turned out to be 58%. For the same molecule, the inhibition at 10 µM on recombinant human PAI-1 [1] (setting [4]) was 85%. Moreover, the inhibition at 25 µM at recombinant human PAI-1 [1] (setting [5]) was 97%. Besides, at recombinant human PAI-1 [2], the inhibition at 0.1 µM was 0%, the inhibition at 0.3 µM was 6%, the inhibition at 1 µM is 26% and the inhibition at 3 µM was found to be 73%. In addition, at recombinant rat PAI-1, the inhibition at 0.3 µM worked out at 0%, the inhibition at 1 µM was determined as 9%, the inhibition at 3 µM came to 33% and the inhibition at 10 µM turned out to be 99%.

For `CC(C)(Oc1cc(-c2ccc(OC(F)(F)F)cc2)ccc1OCCCCc1ccccc1)C(=O)O` [Compound 116], at recombinant human PAI-1 [1] (setting [6]), the inhibition at 5 µM was found to be 56%, the inhibition at 10 µM turned out to be 81% and the inhibition at 25 µM came to 91%. For the same molecule, on recombinant human PAI-1 [2], the inhibition at 0.1 µM stood at 0%, the inhibition at 0.3 µM was 0%, the inhibition at 1 µM amounted to 15% and the inhibition at 3 µM was determined as 89%. Further, at recombinant rat PAI-1, the inhibition at 0.3 µM was 2%, the inhibition at 1 µM worked out at 12%, the inhibition at 3 µM is 43% and the inhibition at 10 µM was found to be 98%.

Regarding `CC(C)(C)c1ccc(COc2c(OCC(=O)O)cccc2-c2ccc(OC(F)(F)F)cc2)cc1` [Compound 117], the inhibition at 5 µM on recombinant human PAI-1 [1] (setting [3]) stood at 63%. Besides, the inhibition at 10 µM at recombinant human PAI-1 [1] (setting [4]) was 91%. The inhibition at 25 µM on recombinant human PAI-1 [1] (setting [5]) came out at 96%. Also, at recombinant human PAI-1 [2], the inhibition at 0.1 µM was found to be 2%, the inhibition at 0.3 µM was found to be 7%, the inhibition at 1 µM came out at 46% and the inhibition at 3 µM was over 99%. Also, at recombinant rat PAI-1, the inhibition at 0.3 µM turned out to be 0%, the inhibition at 1 µM is 7%, the inhibition at 3 µM worked out at 63% and the inhibition at 10 µM worked out at 94%.

Regarding `CC(C)(C)c1ccc(CN(C(=O)C(=O)O)c2ccc(-c3ccc(OC(F)(F)F)cc3)cc2Cl)cc1` [Compound 147], the inhibition at 5 µM on recombinant human PAI-1 [1] (setting [3]) came to 38%. For the same molecule, the inhibition at 10 µM at recombinant human PAI-1 [1] (setting [4]) is 80%. Also, on recombinant human PAI-1 [1] (setting [5]), the inhibition at 25 µM was found to be 92%. Further, on recombinant human PAI-1 [2], the inhibition at 0.1 µM turned out to be 0%, the inhibition at 0.3 µM came out at 7%, the inhibition at 1 µM turned out to be 35% and the inhibition at 3 µM is 99%. Also, at recombinant rat PAI-1, the inhibition at 0.3 µM turned out to be 0%, the inhibition at 1 µM came out at 14%, the inhibition at 3 µM was determined as 70% and the inhibition at 10 µM came to 87%.

Consider `CC(C)(C)c1ccc(CN(C(=O)C(=O)O)c2cc(C(F)(F)F)ccc2-c2ccc(OC(F)(F)F)cc2)cc1` [Compound 168], for which, on recombinant human PAI-1 [1] (setting [3]), the inhibition at 5 µM worked out at 63%. The inhibition at 10 µM on recombinant human PAI-1 [1] (setting [4]) amounted to 94%. On recombinant human PAI-1 [2], the inhibition at 0.1 µM came to 0%, the inhibition at 0.3 µM came to 0%, the inhibition at 1 µM worked out at 33% and the inhibition at 3 µM was 99%. Besides, on recombinant rat PAI-1, the inhibition at 0.3 µM is 0%, the inhibition at 1 µM turned out to be 12%, the inhibition at 3 µM was found to be 81% and the inhibition at 10 µM came to 97%.

For the molecule `CC(C)(C)c1ccc(CN(C(=O)C(=O)O)c2cccc(Oc3ccc(OC(F)(F)F)cc3)c2)cc1` [Compound 172], the inhibition at 5 µM at recombinant human PAI-1 [1] (setting [3]) turned out to be 58%. Moreover, the inhibition at 10 µM on recombinant human PAI-1 [1] (setting [4]) worked out at 89%. The inhibition at 25 µM on recombinant human PAI-1 [1] (setting [5]) turned out to be 94%. In addition, on recombinant human PAI-1 [2], the inhibition at 0.1 µM was 4%, the inhibition at 0.3 µM was determined as 8%, the inhibition at 1 µM is 18% and the inhibition at 3 µM worked out at 76%. Further, on recombinant rat PAI-1, the inhibition at 0.3 µM came out at 0%, the inhibition at 1 µM worked out at 6%, the inhibition at 3 µM stood at 49% and the inhibition at 10 µM was 97%.
